Consider 2 compounds from publication PMC11613437, “Prioritization of Eleven-Nineteen-Leukemia Inhibitors as Orally Available Drug Candidates for Acute Myeloid Leukemia” (Journal of Medicinal Chemistry, 2024).

As a reminder, the IC50 is the concentration that inhibits the measured activity by half. Usually Kd stands for the equilibrium constant for the complex coming apart. Read a low Kd as higher affinity. The CC50 is the concentration giving 50% cytotoxicity.

In data set [1] the test system is HOXA9, HOXA10, MEIS1, MYB and MYC. The data set is described as follows: qRT-PCR of ENL target genes. Type of data set: cell-based. The following applies: MOLM-13 and MV4-11 cells, 72 h, concentrations as low as 1.0 μM. As to the method: Total RNA was extracted using the RNeasy plus kit (Qiagen, 74034) and reverse-transcribed using an iScript cDNA synthesis kit (Bio-Rad, 1708890). Quantitative real-time PCR (qRT-PCR) analyses were performed as described previously using PowerUp SYBR Green PCR Master Mix (Thermo Fisher, A25742) and the Bio-Rad CFX96 real-time PCR detection system. Gene expressions were calculated following normalization to β2-microglobulin (B2M) levels using the comparative Ct (cycle threshold) method. The primer pairs are as follows. HOXA9: forward 5′-GTATAG-[…]-3′, reverse 5′-[…]-3′. MEIS1: forward 5′-[…]-3′, reverse 5′ […]-AGCAAG-3′. MYB: forward 5′-[…]-3′, reverse 5′-[…]-3′, MYC: forward 5′-[…]-AGGT-3′, reverse 5′-TTT-[…]-3′. B2M: forward 5′-[…]-3′ reverse 5′-[…]-3′.
Background: Real-time PCR tracks product formation cycle by cycle.

A short description of data set [2]: Cell toxicity assay (CCK-8), Jurkat. In kind it is cell-based. The following applies: human, Jurkat cells; for IC50 at 8 days: 8 day treatment, n = 3, read-out: CC50 Jurkat (Cellular IC50, 8-days incubation). As to the method: (§1) Approximately 1 × 10^4 JURKAT, MOLM-13, MV4-11 and HEK293T cells in RPMI 1640 (no phenol red) (100 μL) were added to a 96-well plate and treated with DMSO or a compound at indicated concentrations for 72 h or 8 days. Cell viability was measured using the CCK-8 kit (Abcam, ab228554) according to the manufacturer’s instructions.

A further data set concerns the target T1, ENL YEATS domain (Homo sapiens, UniProt Q03111).
T1 construct: Biotinylated-ENL YEATS was immobilized onto SSA biosensors; biotin (biotinylated)
T1 sequence (Q03111 1-138 limits assumed): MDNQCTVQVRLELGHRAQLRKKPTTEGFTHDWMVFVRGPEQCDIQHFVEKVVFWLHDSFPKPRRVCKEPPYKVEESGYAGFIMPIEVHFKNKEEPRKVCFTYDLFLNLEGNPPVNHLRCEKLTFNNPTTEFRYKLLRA
The data set is described as follows: Biolayer interferometry (BLI). In kind it is binding. The following applies: biotinylated ENL YEATS on SSA biosensors, 1:1 model. As to the method:
Superstreptavidin biosensors were first incubated in an assay buffer (20 mM Tris, pH 7.8, 300 mM NaCl, 0.05% Tween 20, 0.1% DMSO) for 15 min. Sensors were coated with 40–60 μg/mL of biotinylated ENL for 15 min at room temperature. Inhibitors were serially diluted across a 96-well plate in a volume of 200 μL. Association of samples to either ENL- or uncoated reference sensors was measured over 300 s and dissociation over 300 s with baseline measurements (buffer only) for 300 s. All assays were run with continuous 1000 rpm shaking. Data were analyzed using the OctetRED data analysis software with reference subtraction in which reference uncoated sensors and reference samples were subtracted. Then, global kinetic fit was performed for all sonogram curves with a 1:1 model to get KD values.
A general note: BLI is a label-free optical method that tracks binding on a fibre tip over time.

Data set [3] is described as follows: Cell toxicity assay (CCK-8), MOLM-13. In kind it is cell-based. Conditions: human, MOLM-13 cells, 8 day treatment, n = 3; read-out: CC50 MOLM-13 (Cellular IC50, 8-days incubation). As for the experimental part:
as §1

For another data set, the system named is MV4-11 cells. The experiment in a line: Cell toxicity assay (CCK-8), MV4-11. The following applies: Homo sapiens, MV4-11; 72 h treatment (superscript a). In kind it is cell-based. As to the method: as §1
Another data set concerns MOLM-13 cells. The experiment in a line: Cell toxicity assay (CCK-8), MOLM-13. In kind it is cell-based. As for the experimental part:
as §1

In the case of `CC(C)[C@H]1CCN1Cc1cc2cnc(NC(=O)c3ccc4nncn4c3)cc2[nH]1` [SR-C-107 (R), (R)-N-(2-((2-Isopropylazetidin-1-yl)methyl)-1H-pyrrolo[3,2-c]pyridin-6-yl)-[1,2,4]triazolo[4,3-a]pyridine-6-carboxamide], the “expression of ENL target genes” value in data set [1] was “effectively suppress the expression of these genes”. The IC50 at 8 days in data set [2] was more than 64 µM; in data set [3] it was 1.25 ± 0.18 µM. The Kd at ENL YEATS domain turned out to be 144 nM.
For the compound `CC(C)C1CCN1Cc1ccc(CNC(=O)c2ccc3nncn3c2)cc1` (centres unmarked) [inhibitor 13], the “expression of ENL target genes” value in data set [1] was “effectively suppress the expression of these genes”. In data set [2] (72 h treatment (superscript a)), this compound came in with a CC50 at 72 h of more than 64 µM. The IC50 at 8 days in data set [2] amounted to 22 ± 1.79 µM; in data set [3], 6.06 µM. The CC50 in the data set with MV4-11 cells stood at 9.15 µM; in the data set with MOLM-13 cells (Homo sapiens, MOLM-13, 72 h treatment (superscript a)) it was 8.2 µM. The IC50 in the data set with MOLM-13 cells (8 day treatment, n = 3, read-out: CC50 MOLM-13 (Cellular IC50, 8-days incubation)) stood at 6.01 ± 0.83 µM.
